In paper PMC6765138 (Nucleic Acids Research, 2019):

B1: MtPrpR_(81–486) (Mycobacterium tuberculosis PrpR, Rv1129c, residues 81-486, N-terminal His6-tag) (domain or fragment)
chain: DARLVADLSDVFTDIGVEHAVSGAQIEEFVARMPEVGHSLVAVHRRLRAATEELEGYRSRATAETELPPARPMPFEEVRDFFYDRNNYIHDLDMAAERMFTESGMRTGGLDIQLAELMRDRFGISVVIDDNLPDTAKRRYHPDTKVLRVAHWLMPGQRAFQIATQLALVGQSDLISSIVATDDQLSTEARGVARIGLANYFAGAFLLPYREFHRAAEQLRYDIDLLGRRFGVGFETVCHRLSTLQRPRQRGIPFIFVRTDKAGNISKRQSATAFHFSRVGGSCPLWVVHDAFAQPERIVRQVAQMPDGRSYFWVAKTTAADGLGYLGPHKNFAVGLGCDLAHAHKLVYSTGVVLDDPSTEVPIGAGCKICNRTSCAQRAFPYLGGRVAVDENAGSSLPYSSTEQSV
notes: also called native PrpR_(81–486); wild-type MtPrpR_(81–486); not shown: His6, N-terminal, kept

Assays:
MtPrpR81–486 = target: T1, MtPrpR81–486 (Mycobacterium tuberculosis, UniProt O06581)
T1 construct: gene prpR

SEC = target: the molecule itself; assay: SEC

Molecule | X-ray crystal structure of co-purified ligand; LC-HRMS of extracted ligand (MtPrpR81–486) | stoichiometry N (SEC)
CC(C)(COP(=O)(O)OP(=O)(O)OC[C@H]1O[C@@H](n2cnc3c(N)ncnc32)[C@H](O)[C@@H]1OP(=O)(O)O)[C@@H](O)C(=O)NCCC(=O)NCCS [Coenzyme A] | the predominant CoA was built into all protein chains | –
B1 | – | 4
